Source: a melting point compilation (Tetko et al.; mined from patent text by program, amines drawn as free bases though some values may be those of a salt)

Molecule `CCC(=O)N1CCC(NC(=O)Nc2ccccc2Cl)CC1` has a melting point of 150 to 157 °C.
For `COc1cc2ncc3c(N)nc(C)cc3c2cc1OC`, the melting point was 244 to 248 °C.
`Cc1cc(-c2oncc2CCC(=O)O)ccc1Cl` gave a melting point of 158 to 159 °C.
With `CCOC(=O)c1sc(I)nc1C(F)(F)F` the melting point was 75 to 76 °C.
Work on `COc1ccc2c(c1)CCC1CCNC(=O)C(CC(C)NC(C)C)=C21` (stereo unspecified) yielded a melting point of 118 to 126 °C.
`Oc1cccc2c1cc(C1=NCCN1)n2-c1ccccc1` gave a melting point of over 270 °C.
Work on `COc1ccccc1-c1oc2cccc3c2c1C=CC3=O` yielded a melting point of 144 °C.
Molecule `O=C(NCO)C(Nc1ccccc1[N+](=O)[O-])c1c(Cl)cccc1Cl` (stereo unspecified) has a melting point of 175 °C.
With `COC(=O)c1ccc(Cc2c(Cl)n(C)c3cc(Cl)c(CC(C)NC(=O)N(C)C)cc23)c(OC)c1` (stereo unspecified) the melting point was 175 to 176 °C.
`CCCCN(Cc1ccc(-c2ccccc2-c2nnn[nH]2)cc1)c1ncncc1C(=O)OC(C)OC(=O)C(C)(C)C` (stereo unspecified) showed a melting point of 71 to 85 °C.
Molecule `COC(=O)C(C)(c1ccc([N+](=O)[O-])cc1)c1cc(C)c(C(=O)c2ccc(Cl)cc2)n1C` (stereo unspecified) has a melting point of 181 to 182 °C.
`O=C(O)C(=O)CC(=O)c1cccn1CCCCc1ccccc1` gave a melting point of 119 to 121 °C.
For `OCc1nnc2n1-c1ccccc1C(c1ccccc1Cl)=NC2`, the melting point was 196 to 197 °C.
Molecule `CCCOc1ccccc1-c1nc2cc3ncn(Cc4ccc(Cl)cc4)c3cc2c(=O)[nH]1` has a melting point of 136 to 137 °C.
In the case of `CCOC(=O)NCn1cccc1C(=O)c1ccc(Cl)cc1Cl`, the melting point is reported as 79 to 80 °C.
`COC(=O)C1CC(C#N)(c2ccc(Cl)cc2)CCC1=O` (stereo unspecified) showed a melting point of 141 to 144 °C.
In the case of `Oc1cnc(N2CCN(CCCCn3cc(Cl)cn3)CC2)nc1`, the melting point is reported as 131 to 132 °C.
With `CCN(CC)CC(O)CSCC(=O)O` (stereo unspecified) the melting point was 104 °C.
Work on `CC(C)(C)Oc1ccc(O)c(C(=O)O)c1` yielded a melting point of 282 °C.
For `Oc1cccc(C=C2c3ccc(Cl)cc3CCc3cccnc32)c1`, the melting point was 221 °C.
Work on `O=C(O)Cn1nc(-c2ccccc2O)nc1-c1ccccc1O` yielded a melting point of 231 to 233 °C.
With `CCCCc1nc(-c2ccco2)c2ncn(Cc3ccc(OC)cc3)c2n1` the melting point was 103 °C.
Work on `CCCCc1ncc(/C=C2/C(=O)NC(=O)N2C)n1Cc1ccc(C(=O)O)cc1` yielded a melting point of 248 to 250 °C.
Molecule `CCc1ccc2c(O)c(-c3nnnn3C)cnc2c1` has a melting point of 270 to 273 °C.
With `CCn1ncc2c(NCC3CCCCC3)c3ccc([N+](=O)[O-])cc3nc21` the melting point was 205 to 207 °C.
Work on `O=C1C=CC(=O)c2ncccc21` yielded a melting point of 110 °C.
Work on `CCc1cc(O)n(-c2ccccn2)n1` yielded a melting point of 189 °C.
Work on `CCOC(=O)c1cn(-c2ccc(Oc3ccccc3)cc2)cn1` yielded a melting point of 113 to 114 °C.
For `CC1(C)[C@@]2(C)CC[C@]1(NCC(=O)N1CCC[C@H]1C#N)C(=O)OC2`, the melting point was 174 to 177 °C.
For `O=[N+]([O-])c1cccc2c1sc1c(Nc3cccc(Br)c3)ncnc12`, the melting point was 247 to 248 °C.
Molecule `CN(C)CCOc1ccc(CNC(=O)c2ccc(S(N)(=O)=O)cc2)cc1` has a melting point of 174 °C.
For `COc1cc(Nc2nccc(-c3ccc(N4CCN(CCN)CC4)nc3)n2)cc(OC)c1OC`, the melting point was 88 to 89 °C.
For `CCc1c(N)c(C)cc(Cc2cc(C)c(N)c(CC)c2Cl)c1Cl`, the melting point was 143 to 148 °C.
With `Nc1ncc(-c2ccc(F)c(F)c2)nc1C(=O)Nc1cccnc1` the melting point was 232 to 234 °C.
For `CC(=O)NC(C(=O)NCc1ccccc1)c1ncc[nH]1` (stereo unspecified), the melting point was 228 to 230 °C.
In the case of `CC(C)(C)c1cc(C(=O)Nc2cccc(OCc3cccnc3)c2)ccc1O`, the melting point is reported as 104 to 107 °C.
Molecule `CC(C)CCN1C(=O)C(N)C(=O)Nc2ccccc21` (stereo unspecified) has a melting point of 148 to 150 °C.
Molecule `CCCCCCCNCc1cccc(OCCCNc2nc(N)nn2C)c1` has a melting point of 64 to 65 °C.
With `CS(=O)(=O)c1ccc(-c2cc(CO)nn2Cc2ccccc2)cc1` the melting point was 155 °C.
For `O=c1c(-c2ccc(F)cc2)c(-c2ccc(S(=O)(=O)C(F)(F)F)cc2)cnn1Cc1ccccc1`, the melting point was 80 to 115 °C.
`CC=CCn1c(C)c(C)c2cnnc(OCc3ccco3)c21` showed a melting point of 84 to 85 °C.
